For orientation: IC50 means the point on the concentration scale where inhibition reaches its midpoint.

The target of one assay is T1, TGF-beta receptor type-1 (Homo sapiens, UniProt P36897).
T1 sequence (P36897 whole entry): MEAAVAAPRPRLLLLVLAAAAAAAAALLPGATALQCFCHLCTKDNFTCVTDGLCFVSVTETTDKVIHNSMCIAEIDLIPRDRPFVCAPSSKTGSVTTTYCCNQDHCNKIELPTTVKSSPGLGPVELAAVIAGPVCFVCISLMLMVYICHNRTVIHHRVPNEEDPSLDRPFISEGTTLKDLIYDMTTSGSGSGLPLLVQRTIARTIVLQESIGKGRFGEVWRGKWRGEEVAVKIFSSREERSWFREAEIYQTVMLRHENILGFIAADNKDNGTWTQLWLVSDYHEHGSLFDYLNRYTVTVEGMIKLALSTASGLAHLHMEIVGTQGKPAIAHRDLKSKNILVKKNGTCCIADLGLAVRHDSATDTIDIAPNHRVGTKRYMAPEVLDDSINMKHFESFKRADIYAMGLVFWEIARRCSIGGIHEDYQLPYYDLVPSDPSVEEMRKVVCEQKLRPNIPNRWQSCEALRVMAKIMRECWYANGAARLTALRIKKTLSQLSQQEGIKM
Nature of the assay: Inhibition of recombinant human GST-fused ALK5 expressed in baculovirus infected Sf9 cells assessed as incoporation of [33]Pi after 60 mins in presence of [gamma-33P]-ATP by microplate scintillation counter method.

Assay [1] addresses Mitogen-activated protein kinase 14 (Homo sapiens, UniProt Q16539). Nature of the assay: Inhibition of recombinant human p38alpha expressed in Escherichia coli assessed as incoporation of [33]Pi after 60 mins in presence of [gamma-33P]-ATP by microplate scintillation counter method.
The target in assay [2] is T2, TGF-beta receptor type-1 (Homo sapiens) (UniProt P36897).
T2 sequence (whole entry): T1 sequence (P36897 whole entry)
Nature of the assay: Potency index, ratio of LY-2157299 IC50 to test compound IC50 for recombinant human GST-fused ALK5 expressed in baculovirus infected Sf9 cells assessed as incoporation of [33]Pi after 60 mins in presence of [gamma-33P]-ATP by microplate scintillation counter method.

Assay [3] deals with U-87 MG. Nature of the assay: Inhibition of TGF-beta-induced cell migration in human U-87MG cells at 1 uM incubated for 36 hrs by bright field microscopy based wound healing assay. Conditions: U-87MG ATCC. Type of assay: functional.
Assay [4] has as its system U-87 MG. The experiment in a line: Inhibition of epithelial-mesenchymal transition in human U-87MG cells assessed as reduction in TGF-beta stimulated Slug protein expression after 48 hrs by Western blot anlaysis. In kind it is functional, cell-based. As to conditions: U-87MG ATCC, dose 0.5-1 µM.
Assay [5] concerns U-87 MG. The experiment in a line: Inhibition of epithelial-mesenchymal transition in human U-87MG cells assessed as reduction in TGF-beta stimulated nuclear translocation of slug at 1 uM pretreated with compound followed by TGFbeta stimulation and measured after 48 hrs by immunofluorescence assay. As to conditions: U-87MG ATCC. Type of assay: functional, cell-based.
The subject of assay [6] is U-87MG ATCC. The experiment in a line: Reversal of TGF-beta-induced epithelial-mesenchymal transition in human U-87MG cells assessed as reduction in N-cadherin protein level at 0.1 to 0.5 uM after 48 hrs by Western blotting analysis. Type of assay: functional, cell-based. As to conditions: dose 0.1-0.5 µM. In general terms: In western blotting, separated proteins are transferred to a membrane and probed.

For assay [7], the system named is U-87MG ATCC. Nature of the assay: Inhibition of TGF-beta-induced cell invasion in human U-87MG cells at 1 uM incubated for 24 hrs by crystal violet staining based matrigel transwell assay. Type of assay: functional.
The test system of assay [8] is U-87MG ATCC. The experiment in a line: Reversal of TGF-beta-induced epithelial-mesenchymal transition in human U-87MG cells assessed as reduction in vimentin protein level at 0.1 to 0.5 uM after 48 hrs by Western blotting analysis. In kind it is functional, cell-based. Conditions: dose 0.1-0.5 µM.
The subject of assay [9] is U-87MG ATCC. Nature of the assay: Reversal of TGF-beta-induced epithelial-mesenchymal transition in human U-87MG cells assessed as reduction in vimentin mRNA level at 1 uM after 48 hrs by RT-PCR analysis. Type of assay: functional, cell-based.
The subject of assay [10] is U-87MG ATCC. The experiment in a line: Inhibition of TGF-beta-induced morphological changes in human U-87MG cells at 0.1 to 1 uM after 48 hrs. In kind it is functional, cell-based. As to conditions: dose 0.1-1 µM.
For assay [11], the system named is U-87MG ATCC. The experiment in a line: Reversal of TGF-beta-induced epithelial-mesenchymal transition in human U-87MG cells assessed as downregulation of N-cadherin expression at 1 uM after 48 hrs by immunofluorescence assay. In kind it is functional, cell-based.
Assay [12] concerns U-87MG ATCC. The experiment in a line: Reversal of TGF-beta-induced epithelial-mesenchymal transition in human U-87MG cells assessed as reduction in N-cadherin mRNA level at 1 uM after 48 hrs by RT-PCR analysis. In kind it is functional, cell-based.
In assay [13] the target is T2, TGF-beta receptor type-1 (Homo sapiens). The experiment in a line: Potency index, ratio of EW-7197 IC50 to test compound IC50 for recombinant human GST-fused ALK5 expressed in baculovirus infected Sf9 cells assessed as incoporation of [33]Pi after 60 mins in presence of [gamma-33P]-ATP by microplate scintillation counter method.

The structures appear in SMILES notation. Calls of active or inactive are those of the source. No cut-off for these calls is given here.

Sequence of Mitogen-activated protein kinase 14 (Q16539 whole entry): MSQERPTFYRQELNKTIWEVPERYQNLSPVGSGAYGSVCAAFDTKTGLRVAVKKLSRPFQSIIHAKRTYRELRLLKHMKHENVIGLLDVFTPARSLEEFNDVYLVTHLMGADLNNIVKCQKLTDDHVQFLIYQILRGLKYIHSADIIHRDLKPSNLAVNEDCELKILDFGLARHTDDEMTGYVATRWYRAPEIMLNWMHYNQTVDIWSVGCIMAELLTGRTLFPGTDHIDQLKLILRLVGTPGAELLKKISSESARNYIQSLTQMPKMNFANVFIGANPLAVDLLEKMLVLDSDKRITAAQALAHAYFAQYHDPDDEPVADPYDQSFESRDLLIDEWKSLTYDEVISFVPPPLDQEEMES

In the case of `Cc1cccc(-c2[nH]c(CNc3ccc(F)cc3)nc2-c2ccc3[nH]ncc3c2)n1`, the values for the IC50 (on TGF-beta receptor type-1; in assay [1]) were 6 nM and 52 nM, respectively. Further, the Ratio IC50 in assay [2] stood at 3.8.

Turning to `Cc1cccc(NCc2nc(-c3ccc4[nH]ncc4c3)c(-c3cccc(C)n3)[nH]2)c1`, the IC50 at TGF-beta receptor type-1 is 8 nM; in assay [1], 32 nM. Also, the Ratio IC50 in assay [2] came out at 3.8.

In the case of `Cc1cccc(-c2[nH]c(CNc3ccccc3C)nc2-c2ccc3c(cnn3C)c2)n1`, the IC50 on TGF-beta receptor type-1 amounted to 24 nM; in [1] it was 71 nM. Also, the Ratio IC50 in [2] was 3.8.

As for `Cc1cccc(-c2[nH]c(CNc3ccccc3C)nc2-c2ccc3[nH]ncc3c2)n1`, the IC50 at TGF-beta receptor type-1 was found to be 5 nM; in assay [1] it was 23 nM.

With `Cc1cccc(-c2[nH]c(CNc3ccccc3F)nc2-c2ccc3[nH]ncc3c2)n1`, the concentration for half-maximal inhibition (IC50) at TGF-beta receptor type-1 was 5 nM; in assay [1], 20 nM.

In the case of `Cc1cccc(-c2[nH]c(CNc3cccc(F)c3)nc2-c2ccc3[nH]ncc3c2)n1`, the inhibition entry in the assay with U-87 MG [3], in the assay on U-87 MG [5], in the assay on U-87MG ATCC [7] and in the assay with U-87MG ATCC [10] was “Active” in each case. The inhibition result in the assay with U-87 MG [4] was “Dose-dependent effect”. Besides, the IC50 (on TGF-beta receptor type-1; in [1]) was 4 nM each time. The outcome in the assay with U-87MG ATCC [6], in the assay on U-87MG ATCC [8], with U-87MG ATCC [9], in the assay with U-87MG ATCC [11] and in the assay with U-87MG ATCC [12] was Active.

Consider `Cc1cccc(-c2[nH]c(CNc3cccc(F)c3)nc2-c2ccc3c(cnn3C)c2)n1`, for which the IC50 is 11 nM at TGF-beta receptor type-1 and 26 nM in assay [1]. Besides, in assay [2], the Ratio IC50 turned out to be 3.8.

Turning to `Cc1cccc(-c2[nH]c(CNc3ccccc3)nc2-c2ccc3c(cnn3C)c2)n1`, the values for the IC50 (on TGF-beta receptor type-1; in assay [1]) were 14 nM and 66 nM, respectively. For the same compound, in assay [2], the Ratio IC50 was 3.8.

As for `Cc1cccc(NCc2nc(-c3ccc4c(cnn4C)c3)c(-c3cccc(C)n3)[nH]2)c1`, the IC50 on TGF-beta receptor type-1 turned out to be 10 nM; in [1], 23 nM.

In the case of `Cc1cccc(-c2[nH]c(CNc3ccc(F)cc3)nc2-c2ccc3c(cnn3C)c2)n1`, the results for the IC50 (on TGF-beta receptor type-1; in assay [1]) were 16 nM and 112 nM, respectively. The Ratio IC50 in [2] turned out to be 3.8.

Regarding `Cc1cccc(-c2[nH]c(CNc3ccccc3)nc2-c2ccc3[nH]ncc3c2)n1`, the figures for the IC50 (on TGF-beta receptor type-1; in assay [1]) were 4 nM and 13 nM, respectively. Moreover, the Ratio IC50 in [13] came to 3.5; in assay [2], 32.3.

Turning to `Cc1cccc(-c2[nH]c(CNc3ccccc3F)nc2-c2ccc3c(cnn3C)c2)n1`, the IC50 on TGF-beta receptor type-1 worked out at 13 nM; in [1], 95 nM.

As to `Cc1cccc(-c2nn3c(c2-c2ccnc4ccc(C(N)=O)cc24)CCC3)n1`, the inhibition result with U-87 MG [4] is “Dose-dependent effect”. The outcome with U-87MG ATCC [6] and in the assay with U-87MG ATCC [8] was Active. Moreover, the inhibition entry with U-87MG ATCC [10] is “Active”.

Consider `Cc1ccc(NCc2nc(-c3ccc4c(cnn4C)c3)c(-c3cccc(C)n3)[nH]2)cc1`, for which the IC50 on TGF-beta receptor type-1 turned out to be 34 nM; in [1] it was 565 nM. Besides, in [2], the Ratio IC50 is 3.8.

Turning to `Cc1ccc(NCc2nc(-c3ccc4[nH]ncc4c3)c(-c3cccc(C)n3)[nH]2)cc1`, the IC50 was found to be 9 nM at TGF-beta receptor type-1 and 329 nM in assay [1].

Source of the values: ChEMBL document CHEMBL4732251, “Synthesis and evaluation of the epithelial-to- mesenchymal inhibitory activity of indazole-derived imidazoles as dual ALK5/p38α MAP inhibitors” (Eur J Med Chem, 2021).
